{"source": "patent US10751329B2", "about": "“Treatment of CDKL5 disorders with GSK3β inhibitor tideglusib” (priority 2016, dated 2020)", "key": {"GSK3β-dependent targets": {"test_system": "GSK3β-dependent targets", "assay": "Western blot of GSK3β-dependent targets (β-catenin, P-CRMP2 Thr-514, P-CREB Ser-133) in hippocampus, juvenile and adult mice", "assay_type": "in vivo", "settings": "juvenile CDKL5 KO mice (treated from P25, P45)", "text": "Data are expressed as percentage of vehicle treated Cdkl5+/Y mice of the same age. Values are represented as means±SE. *p<0.05, **p<0.01, ***p<0.001 as compared to the vehicle-treated Cdkl5 +/Y condition; #p<0.05; ##p<0.01, ###p<0.001 as compared to the vehicle-treated Cdkl5 −/Y condition (Duncan's test after ANOVA)."}, "Cdkl5^−/Y mice [1]": {"test_system": "Cdkl5^−/Y mice", "assay": "Granule cell density, number and layer volume in the dentate gyrus", "assay_type": "in vivo", "settings": "20 mg/kg s.c. every other day from P25, P45"}, "Cdkl5^−/Y mice [2]": {"test_system": "Cdkl5^−/Y mice", "assay": "Passive avoidance (PA) test", "assay_type": "in vivo", "settings": "at the end of treatment", "experimental": "Starting from postnatal day 25 (P25), Cdkl5^+/Y WT and Cdkl5^−/Y KO male mice were treated with vehicle (corn oil; Sigma-Aldrich) or NP-12 (20 mg/kg; Sigma-Aldrich), administered by subcutaneous injection every other day for 20 days. […] For the PA test we used a tilting-floor box (47×18×26 cm) divided into two compartments by a sliding door and a control unit incorporating a shocker (Ugo Basile, Italy). This classic instrument for Pavlovian conditioning exploits the tendency in mice to escape from an illuminated area into a dark one (step-through method). On the first day mice were individually placed into the illuminated compartment. After 60 seconds of habituation period, the connecting door between the chambers opened. In general, mice step quickly through the gate and enter the dark compartment because mice prefer to be in the dark. Upon entering the dark compartment, mice received a brief foot shock (0.7 mA for 3 seconds) and were removed from the chamber after 15 seconds of latency. If the mouse remained in the light compartment for the duration of the trial (358 s), the door closed and the mouse was removed from the light compartment. […] After a 24 hour retention period, mice were placed back into the light compartment and the time it took them to re-enter the dark compartment (latency) was measured up to 358 seconds."}, "[3]": {"test_system": "Cdkl5 KO hippocampal neurons", "assay": "Synaptophysin (SYN) puncta in hippocampal neuronal cultures", "assay_type": "cell-based, mice", "settings": "1 μM every other day, DIV7 to DIV12", "experimental": "Immunostaining for cultured hippocampal neurons were performed with the following procedure. Cells were fixed in 4% PFA+4% sucrose in PBS for 20 min and washed five times in PBS. After permeabilization with PBST cells were incubated overnight at 4° C. o/n with the following antibodies: rabbit polyclonal anti-MAP2 (1:100, Millipore) and SYN (SY38) antibody (1:1000, MAB 5258, Merck Millipore). Sections were then incubated for 2 h at room temperature with a FITC-conjugated goat anti-mouse IgG (1:100; Sigma-Aldrich) and a Cy3-conjugated anti-rabbit IgG (1:100, Jackson Immunoresearch).\nTo develop the cultures the hippocampal neuronal cells were harvested on postnatal day 1, which was considered division 0 (DIV 0) and cultured in vitro for the remainder of the experiment. […] Results are presented as mean±SD. Data were analyzed with Duncan's test after ANOVA. A probability level of p<0.05 was considered to be statistically significant. *P, 0.05, **P<0.01, ***p<0.001 as compared to the untreated wild-type (Cdkl5+/Y) condition; #p<0.05, ##p<0.01 ###p<0.001 as compared to the untreated Cdkl5 KO (−/Y) samples."}, "Cdkl5^−/Y mice [4]": {"test_system": "Cdkl5^−/Y mice", "assay": "Neuronal survival in the dentate gyrus (cleaved caspase-3, DCX immunohistochemistry)", "assay_type": "in vivo", "settings": "20 mg/kg s.c. every other day from P25, P45", "from_the_text": "(B,C) Examples of sections processed for DCX immunostaining from the dentate gyrus (DG) of untreated and treated Cdkl5^+/Y and Cdkl5^−/Y male mice. (C). […] Scale bar=30 μm; type 2b/3 cells and immature neurons were counted separately. (B) Number of DCX-positive type 2b/3 precursor cells and DCX-positive immature neurons in the DG of mice of untreated (+/Y n=3, −/Y n=3) and treated (+/Y n=3, −/Y n=3) Cdkl5 mice. Values in A represent totals for one DG (mean±SD), data in B are expressed as number of cells/100 μm. *p<0.05; **p<0.01 as compared to the untreated Cdkl5^+/Y condition; ##p<0.01; ###p<0.001 as compared to the untreated Cdkl5^−/Y samples (Duncan's test after ANOVA). Abbreviations: GR, granular layer; SGZ, subgranular zone.\nThe day of birth was designed as postnatal day (P) zero (P0) and animals with 24 hours of age were considered as one-day-old animals (P1). After weaning, mice were housed three to five per cage and were on a 12-hour (h) light/dark cycle in a temperature-controlled environment with food and water provided ad libitum. […]\nOne out of 6 sections from the hippocampal formation were used for immunohistochemistry for cleaved caspase-3 (1:200, anti-cleaved caspase-3 rabbit polyclonal Ab, Cell Signaling Technology), doublecortin (1:100, anti-DCX goat polyclonal Ab, Santa Cruz Biotechnology), synaptophysin (1:1000, anti-SYN (SY38) mouse monoclonal Ab, MAB 5258, Merck Millipore) and PSD-95 (1:1000, anti-PSD-95 rabbit polyclonal Ab, Abcam) or double fluorescence immunohistochemistry for synaptophysin, and PSD-95. […]\nThe total number of positive cells in the DG (cleaved caspase-3, DCX) was estimated by multiplying the total number counted in the series of sampled sections by the inverse of the section sampling fraction (ssf=⅙). The total number of cells of each phenotype was estimated by multiplying the number counted in the series of sections by the inverse of the section sampling fraction (ssf=⅙)."}, "Cdkl5^−/Y mice [5]": {"test_system": "Cdkl5^−/Y mice", "assay": "Hippocampal connectivity: SYN and PSD-95 immunoreactivity and puncta in the molecular layer of the DG", "assay_type": "in vivo", "settings": "20 mg/kg s.c. every other day from P25, P45", "method": "After weaning, mice were housed three to five per cage and were on a 12-hour (h) light/dark cycle in a temperature-controlled environment with food and water provided ad libitum. Starting from postnatal day 25 (P25), Cdkl5^+/Y WT and Cdkl5^−/Y KO male mice were treated with vehicle (corn oil; Sigma-Aldrich) or NP-12 (20 mg/kg; Sigma-Aldrich), administered by subcutaneous injection every other day for 20 days. Animals were sacrificed 4 hours after the last injection on P45."}, "CDKL5 KO mice [6]": {"test_system": "CDKL5 KO mice", "assay": "Hippocampus-dependent learning and memory (Morris water maze, passive avoidance), juvenile and adult mice", "assay_type": "in vivo", "settings": "juvenile CDKL5 KO mice (treated from P25, P45)", "experimental": "Starting from postnatal day 25 (P25) for juvenile mice (A) or postnatal day 90 (P90) for adult mice (B), Cdkl5^+/Y and Cdkl5^−/Y male mice were treated with vehicle or NP-12, administered by subcutaneous injection every other day for 20 days. Animals were sacrificed after the last injection (on P45 and P110 for juvenile and adult mice, respectively) or were behaviorally tested. […] Spatial learning and memory (probe test) assessed with the Morris water maze in vehicle treated and NP-12 treated Cdkl5+/Y and −/Y male mice aged P45 (A) and aged P110 (B). Passive avoidance test (PA) on vehicle treated and NP-12 treated Cdkl5+/Y and −/Y male mice aged P45 (C). Graphs show the latency time to enter the dark compartment on the first day and on the second day of the behavioral procedure. Values are represented as means±SE. *p<0.05, **p<0.01, ***p<0.001 as compared to the vehicle-treated Cdkl5+/Y condition; #p<0.05; ##p<0.01, ###p<0.001 as compared to the vehicle-treated Cdkl5−/Y condition (Duncan's test after ANOVA)."}, "Cdkl5^−/Y mice [7]": {"test_system": "Cdkl5^−/Y mice", "assay": "Dendritic development of granule cells (DCX and Golgi staining)", "assay_type": "in vivo", "settings": "20 mg/kg s.c. every other day from P25, P45", "method": "After weaning, mice were housed three to five per cage and were on a 12-hour (h) light/dark cycle in a temperature-controlled environment with food and water provided ad libitum. […] Animals were sacrificed 4 hours after the last injection on P45."}, "CDKL5 KO mice [8]": {"test_system": "CDKL5 KO mice", "assay": "Neuronal survival and maturation (DCX-positive neurons, dendritic length and branches), juvenile and adult mice", "assay_type": "in vivo", "settings": "juvenile CDKL5 KO mice (treated from P25, P45)", "method": "(§1) FIGS. 22A-22B show an experimental protocol for evaluating the effect of NP-12 in juvenile and adult mice. Starting from postnatal day 25 (P25) for juvenile mice (A) or postnatal day 90 (P90) for adult mice (B), Cdkl5^+/Y and Cdkl5^−/Y male mice were treated with vehicle or NP-12, administered by subcutaneous injection every other day for 20 days. Animals were sacrificed after the last injection (on P45 and P110 for juvenile and adult mice, respectively) or were behaviorally tested. Abbreviations: +/Y: wildtype male mice; −/Y: Cdkl5 KO male mice; P, postnatal day.\nFIGS. 25A-25B show the quantification of the number of DCX-positive postmitotic neurons in the dentate gyrus of vehicle treated and NP-12 treated Cdkl5+/Y and −/Y male mice aged P45 (A) and aged P110 (B). Data are expressed as number of cells/100 μm. Values are represented as means±SE. *p<0.05, **p<0.01, ***p<0.001 as compared to the vehicle-treated Cdkl5+/Y condition; #p<0.05; ##p<0.01, ###p<0.001 as compared to the vehicle-treated Cdkl5 −/Y condition (Duncan's test after ANOVA).\nFIGS. 26A-26B show the mean total dendritic length and mean number of dendritic branches of newborn granule cells of vehicle treated and NP-12 treated Cdkl5+/Y and −/Y male mice aged P45 (A) and aged P110 (B)."}, "[9]": {"test_system": "hippocampal neurons from Cdkl5 KO mice", "assay": "Polarization and morphological analysis of MAP2-stained hippocampal neurons", "assay_type": "cell-based", "settings": "Cdkl5 KO hippocampal cultures; 1 μM, DIV10", "text": "(C-D) Graphs showing the percentage of polarized neurons (C) and the quantification of the length of the longest axon and dendrite (D) in treated and untreated in hippocampal cultures as in A. (E) Representative images of MAP2-stained hippocampal neurons as in A. Data are expressed as fold difference in comparison to hippocampal neurons from untreated Cdkl5^+/Y mice. Values are represented as means±SD. *p<0.05 as compared to the untreated Cdkl5^+/Y condition; #p<0.05; ##p<0.01 as compared to the untreated Cdkl5^−/Y samples (Duncan's test after ANOVA).\nHippocampal neurons were prepared from postnatal day 1 (P1) Cdkl5^−/Y and Cdkl5^X/Y male mice. […]\nTo define the degree of polarization of neuronal dendrites, we followed the method described by Horton et al. (FIG. 3) (Horton et al. 2006. Brain Cell. Biol. 35:29-38). Briefly, the measured lengths of dendrites (Lm) in each neuron (including the primary dendrite/axon with all its branches) were ranked highest to lowest. […]\nThe morphological analysis of hippocampal neurons was focused on two parameters: length of the longest dendrite (D1) and total dendritic length. To achieve this aim, dendritic length of MAP2-positive neurons were measured and quantified by tracing along each neuronal projection using the image analysis system Image Pro Plus (Media Cybernetics, Silver Spring, Md. 20910, USA). […]"}, "GSK3β": {"test_system": "GSK3β", "assay": "Western blot of P-GSK3β-Ser9, GSK3β and β-catenin in hippocampal extracts of treated mice", "settings": "20 mg/kg s.c. every other day from P25, P45"}, "Cdkl5^−/Y mice [10]": {"test_system": "Cdkl5^−/Y mice", "assay": "Spine density and morphology of Golgi-stained granule cells", "assay_type": "in vivo", "settings": "20 mg/kg s.c. every other day from P25, P45", "experimental": "(B) Images of Golgi-stained dendritic branches of granule cells of untreated and treated Cdkl5^+/Y and Cdkl5^−/Y male mice. […] The day of birth was designed as postnatal day (P) zero (P0) and animals with 24 hours of age were considered as one-day-old animals (P1). After weaning, mice were housed three to five per cage and were on a 12-hour (h) light/dark cycle in a temperature-controlled environment with food and water provided ad libitum. […] Animals were sacrificed 4 hours after the last injection on P45. Brains were Golgi-stained using the FD Rapid Golgi Stain™ Kit (FD NeuroTechnologies, Inc., Columbia, Md., USA). […] In Golgi-stained sections, spines of granule cells were counted using a 100× oil immersion objective lens. Dendritic spine density was measured by manually counting the number of dendritic spines on dendritic segments in the inner and outer half of the molecular layer and expressed as the number of dendritic spines per 20 μm dendritic length. The dendritic spine length was measured by manually drawing a vertical line from the tip of the protrusion to the point where it met the dendritic shaft. The number of spine clusters was counted manually on dendritic segments in the inner and outer half of the molecular layer and expressed as number of spine clusters per 20 μm dendritic length. […] The number of spines belonging to the different group was counted."}, "[11]": {"test_system": "GSK3β Ser9-phosphorylation in hippocampal neurons from Cdkl5 KO mice", "assay": "Western blot of P-GSK3β-Ser9 in hippocampal neuronal cultures (DIV10)", "assay_type": "cell-based", "settings": "chronic treatment 1 μm from DIV2, DIV10", "experimental": "Hippocampal cultures were treated with 1 μm NP-12 starting from DIV2. […] Values are represented as means±SD. *p<0.05 as compared to the untreated Cdkl5^+/Y condition; #p<0.05; ##p<0.01 as compared to the untreated Cdkl5^−/Y samples (Duncan's test after ANOVA).\nHippocampal neurons were prepared from postnatal day 1 (P1) Cdkl5^−/Y and Cdkl5^X/Y male mice. Briefly, hippocampi were dissected from mouse brains under a dissection microscope and treated with trypsin (Sigma Aldrich) for 15 min at 37° C. and DNase (Sigma Aldrich) for 2 min at room temperature before triturating mechanically with fire-polished glass pipette to obtain a single-cell suspension. Approximately 1.2×10^5 cells were plated on coverslips coated with poly-1-lysine in 12-well plates and cultures in Neurobasal medium (Invitrogen) supplemented with B27 (Invitrogen) and glutamine (Invitrogen). Cells were maintained in vitro at 37° C. in a 5% CO2-humified incubator and fixed for immunostaining or Western Blot analysis at 10 days after plating (DIV10). 1 μM NP-12 (Sigma) was administrated on alternate days.\nFor Western Blot analysis hippocampal neurons at DIV10 were lysed in ice-cold RIPA lysis buffer (50 mM Tris-HCl pH 7.4, 150 mM NaCl, 1% Triton-X100, 0.5% sodium deoxycholate, 0.1% SDS) supplemented with 1 mM PMSF and 1% proteases and phosphatases inhibitor cocktail (Sigma). […]"}, "CDKL5 KO mice [12]": {"test_system": "CDKL5 KO mice", "assay": "Synapse development (SYN and PSD-95 puncta in the DG), juvenile mice", "assay_type": "in vivo", "settings": "juvenile CDKL5 KO mice (treated from P25, P45)", "method": "as §1\nValues are represented as means±SE. *p<0.05, **p<0.01, ***p<0.001 as compared to the vehicle-treated Cdkl5+/Y condition; #p<0.05; ##p<0.01, ###p<0.001 as compared to the vehicle-treated Cdkl5 −/Y condition (Duncan's test after ANOVA)."}, "CDKL5 KO mice [13]": {"test_system": "CDKL5 KO mice", "settings": "cited from earlier work"}}, "data": [{"smiles": "O=c1sn(-c2cccc3ccccc23)c(=O)n1Cc1ccccc1", "note": "[NP-12, tideglusib]", "values": [{"measurement": "GSK3β-dependent targets (β-catenin, P-CRMP2 Thr-514, P-CREB Ser-133)", "setting": "GSK3β-dependent targets", "value": "restores GSK3β-dependent targets in juvenile"}, {"measurement": "granule cell density in the dentate gyrus", "setting": "Cdkl5^−/Y mice [1]", "value": "fully restored"}, {"measurement": "total granule cell number in the dentate gyrus", "setting": "Cdkl5^−/Y mice [1]", "value": "fully restored"}, {"measurement": "volume of the granule cell layer", "setting": "Cdkl5^−/Y mice [1]", "value": "without affecting the volume of the granule cell layer"}, {"measurement": "latency time to enter the dark compartment, second day (test)", "setting": "Cdkl5^−/Y mice [2]; Cdkl5^−/Y mice, 24 hours after shock", "value": "underwent an increase and there was no significant difference in comparison to untreated Cdkl5^+/Y mice"}, {"measurement": "latency time to enter the dark compartment, first day", "setting": "Cdkl5^−/Y mice [2]; all groups", "value": "all groups showed similar step-through latencies"}, {"measurement": "number of synaptophysin (SYN) puncta", "setting": "[3]", "value": "completely restore"}, {"measurement": "cell death: cleaved caspase-3 positive cells in the dentate gyrus", "setting": "Cdkl5^−/Y mice [4]; Cdkl5 KO male mice", "value": "completely restored"}, {"measurement": "survival rate of the postmitotic granule cells", "setting": "Cdkl5^−/Y mice [4]; Cdkl5^−/Y mice", "value": "restores the survival rate of the postmitotic granule cells"}, {"measurement": "number of DCX-positive immature neurons in the dentate gyrus", "setting": "Cdkl5^−/Y mice [4]; treated mice vs untreated Cdkl5^+/Y", "value": "underwent an increase in the number of DCX-positive neurons, that became similar to that of untreated Cdkl5^+/Y littermates"}, {"measurement": "density of PSD-95 puncta in the molecular layer of the DG", "setting": "Cdkl5^−/Y mice [5]", "value": "completely restored"}, {"measurement": "density of SYN puncta in the molecular layer of the DG", "setting": "Cdkl5^−/Y mice [5]", "value": "completely restored"}, {"measurement": "optical density of PSD-95 immunoreactivity in the molecular layer of the DG", "setting": "Cdkl5^−/Y mice [5]", "value": "fully rescued"}, {"measurement": "optical density of SYN immunoreactivity in the molecular layer of the DG", "setting": "Cdkl5^−/Y mice [5]", "value": "fully rescued"}, {"measurement": "hippocampus-dependent behavior defects (learning and memory)", "setting": "CDKL5 KO mice [6]", "value": "corrects hippocampus-dependent behavior defects in juvenile"}, {"measurement": "dendritic length of newborn (DCX-positive) granule cells", "setting": "Cdkl5^−/Y mice [7]", "value": "increase in both parameters that became similar or even greater than those of untreated Cdkl5^+/Y mice"}, {"measurement": "dendritic length of older Golgi-stained granule cells", "setting": "Cdkl5^−/Y mice [7]", "value": "completely rescued"}, {"measurement": "number of dendritic branches of newborn (DCX-positive) granule cells", "setting": "Cdkl5^−/Y mice [7]", "value": "increase in both parameters that became similar or even greater than those of untreated Cdkl5^+/Y mice"}, {"measurement": "number of dendritic segments of older Golgi-stained granule cells", "setting": "Cdkl5^−/Y mice [7]", "value": "completely rescued"}, {"measurement": "neuronal survival and maturation", "setting": "CDKL5 KO mice [8]", "value": "restores neuronal survival and maturation in juvenile"}, {"measurement": "axon and dendrite maturation (length of the longest axon and dendrite)", "setting": "[9]", "value": "had positive effects on correct axon and dendrite maturation"}, {"measurement": "percentage of polarized neurons", "setting": "[9]", "value": "efficiently ameliorated the percentage of polarized neurons"}, {"measurement": "total GSK3β levels in hippocampus", "setting": "GSK3β", "value": "no effect"}, {"measurement": "Ser9-phosphorylated GSK3β levels in hippocampus", "setting": "GSK3β; Cdkl5^−/Y male mice", "value": "increased Ser9-phosphorylated GSK3β levels in Cdkl5^−/Y mice that became even higher to those of the untreated Cdkl5^+/Y counterparts"}, {"measurement": "β-catenin levels in hippocampus", "setting": "GSK3β; Cdkl5^−/Y male mice", "value": "complete recovery of β-catenin levels"}, {"measurement": "dendritic spine density of granule cells", "setting": "Cdkl5^−/Y mice [10]", "value": "no effect on spine density"}, {"measurement": "spine shape morphology (percentage of immature and mature spines)", "setting": "Cdkl5^−/Y mice [10]; Cdkl5 KO mice", "value": "completely restored"}, {"measurement": "GSK3β Ser9-phosphorylation", "setting": "[11]", "value": "completely restores GSK3β Ser9-phosphorylation"}, {"measurement": "synapse development (SYN and PSD-95 puncta)", "setting": "CDKL5 KO mice [12]", "value": "restores synapse development in juvenile CDKL5 KO mice"}]}, {"smiles": "Cn1cc(C2=C(c3ccc(Cl)cc3Cl)C(=O)NC2=O)c2ccccc21", "note": "[SB216763]", "values": [{"measurement": "hippocampal development", "setting": "CDKL5 KO mice [13]", "value": "restore hippocampal development by restoring dendritic development, spine morphology and distribution, survival of newborn granule cells, and connectivity"}]}]}
